{"source": "patent US6518221B1", "about": "“Plant growth regulator and method for using same” (Wilbur-Ellis Company, priority 2002, dated 2003)", "format_in_all_cases": "in vivo", "key": {"MAXXA cotton": {"system": "MAXXA cotton", "test": "Study on MAXXA cotton: effects on plant growth and development", "settings": "10 gm/A", "method": "A study was conducted on MAXXA cotton to determine the effects of Mepiquat Chloride and the combination of (CCC) chlormequat chloride/WSCP on plant growth and development.\nIn this example, the amount of WSCP used in each chemical treatment was constant, and the amount of CCC varied from 2.5 to 5.0 grams/acre. The corresponding ratios of WSCP and CCC were as follows: at the 2.5 gram/acre rate the ratio of WSCP to CCC was 30:1; at the 5.0 gram/acre rate the ratio of WSCP to CCC was 15:1. It should also be noted that 5.0% calcium and 1.25% zinc were also added to each of the mixtures."}, "[1]": {"system": "Stoneville cotton variety", "test": "Field study in Mississippi on Stoneville cotton: fruit (boll) set", "settings": "10 grams per acre, applied once on July 8th, with 5.0% calcium and 1.25% zinc", "method": "A field study was conducted in the State of Mississippi on a Stoneville cotton variety, in which the physiological characteristics of plants treated with the plant growth regulator of the present invention (a mixture of CCC, WSCP, and CC), were compared to the characteristics of untreated plants, or “checks”, and the characteristics of plants treated with PIX.\nThe formulation of the present invention used in Example 2 was as follows: the ratio of WSCP to CCC was reduced to 2.7:1, and the ratio of CC (Choline Chloride) to CCC was 0.6:1. Also added to the formulation was 5.0% calcium and 1.25% zinc.\nThe rate of PIX application was 10 grams per acre, applied once on July 8th of the study year. The rate and timing of this application was consistent with the manufacturer's label recommendation. The rate of application of the plant growth regulator of the present invention was 2.5 grams per acre, applied once on June 28th and again on July 18th. As with Example 1, the formulations of PIX used in Example 2, included 5.0% calcium and 1.25% zinc.\nThe physiological characteristics under study determine the effectiveness of the chemical products on fruit, or boll, set. The first fruiting position on a reproductive branch is the most important plant feature that affects expected plant yield. Consequently, the higher the percentage of fruit set at the first fruiting position the higher the fruit yield potential."}, "cotton": {"system": "cotton", "test": "Field trials in Greece: plant growth regulating effects (plant height)", "settings": "20.0 gm/Ha", "text": "Field trials were established in the country of Greece to determine the plant growth regulating effects of several products, including the chemical formulation of the present invention. The particular formulation of the present invention used in these trials, was as follows: 1.0 parts CCC; 2.7 parts WSCP; 0.6 parts CC; 27 parts Calcium; and, 6.75 parts Zinc (parts per weight). All of the chemical applications were applied at the same time, and there were three replications at each trial site."}}, "data": [{"smiles": "C[N+]1(C)CCCCC1.[Cl-]", "note": "[Mepiquat Chloride, N,N-dimethylpiperidinium chloride]", "values": [{"measurement": "Average Bottom 5 FPB (First Position Bolls As A Percentage)", "setting": "MAXXA cotton", "result": 60.0, "unit": "Percentage"}, {"measurement": "Average Fruiting Branches", "setting": "MAXXA cotton", "result": 15.7}, {"measurement": "Average Nodes", "setting": "MAXXA cotton", "result": 21.7}, {"measurement": "Average Plant Height", "setting": "MAXXA cotton", "result": "35.9″"}, {"measurement": "Average Top 5 FPB (First Position Bolls As A Percentage)", "setting": "MAXXA cotton", "result": 43.0, "unit": "Percentage"}, {"measurement": "Average Vegetative Nodes", "setting": "MAXXA cotton", "result": 6.1}, {"measurement": "First Fruiting Branch", "setting": "[1]", "result": 6}, {"measurement": "Percentage Of First Fruiting Positions (Nodes 6-13)", "setting": "[1]", "result": 76.3, "unit": "%"}, {"measurement": "Total Percentage Of Fruit Set (Nodes 6-13)", "setting": "[1]", "result": 65.0, "unit": "%"}, {"measurement": "Plant Height", "setting": "cotton; Site 1", "result": 10.00, "unit": "Cm"}, {"measurement": "Plant Height", "setting": "cotton; Site 2", "result": 27.33, "unit": "Cm"}, {"measurement": "Plant Height", "setting": "cotton; Site 3", "result": 7.78, "unit": "Cm"}]}]}
